Reference: patent US20040073958A1, “Transgenic animal having drug metabolism enzyme gene and utilization thereof” (priority 2001, published 2004)
Several values for one entry are separate records, joined by “and”; a condition that tells them apart may be missing. Equal values may be shown once.

Legend:
rats and Rhesus monkeys = settings: cited from earlier work; for teratogenicity in rats as compared with Rhesus monkeys: administered to rats at corresponding generation stages
36p Tg mice = assay: Teratogenicity and fetal toxicity effects of thalidomide in 36p Tg mouse; settings: for Details of Malformation: number of fetuses in brackets
Method: Frozen eggs of the transgenic mouse were prepared in accordance with “Example 4: Production of fertilized egg,” and fertilized eggs of the transgenic mouse were cryopreserved. The frozen fertilized eggs were melted, and 20 eggs were respectively transplanted into the oviducts of pseudopregnant female mice of the ICR lineage, and implanted. On the 9th day of gestation, thalidomide was administered into the maternal peritoneal cavity. The effect of thalidomide was tested at the dosage of: 100 mg/kg, and 200 mg/kg. A mixed solution of Tween 20 and physiological saline (1:3) was used as a vehicle. On the day before the delivery, which is the 19th day of gestation, the maternal body was subjected to laparotomy to observe the conditions inside the womb and the presence of teratogenicity and fetal toxicity in the generated and grown fetus. Also, tissues were collected from the fetuses generated and grown in the womb, or vestige of fetal matter in the womb, DNA was extracted therefrom, and the genotype was assayed by PCR The results are summarized in Table 4.

rat = settings: early test using a rat; cited from earlier work
rabbit = settings: administration of cyclooxygenase inhibitor; cited from earlier work
Salmonella TA100 = settings: cited from earlier work

## O=c1[nH]cc(F)c(=O)[nH]1 [5-fluorouracil]
Rats and Rhesus monkeys
  teratogenicity in rats as compared with Rhesus monkeys: teratogenicity was observed at a lower dose

## O=C1CCC(N2C(=O)c3ccccc3C2=O)C(=O)N1 (centres unmarked) [Thalidomide, thalidomide]
Rats and Rhesus monkeys; teratogenic sensitivity, monkeys versus rats
  sensitivity of monkeys relative to that of rats: ≥ 10 times
Rats and Rhesus monkeys; teratogenic sensitivity
  sensitivity of rats compared with that of Rhesus monkeys: significantly lower
36p Tg mice; 100 mg/kg i.p. day 9 of gestation, laparotomy day 19, single dam
  Implants Total: 15 and 14
36p Tg mice; 100 mg/kg, Total of 2 dams
  Implants Total: 29
  Implants/dam: 14.5
  Live fetuses/dam: 1.5
  Malformations total (%): 33.3%
  Malformations/Tg (%): 100.0%
  Malformations/nTg (%): 0.0%
  Resorptions (%): 89.7%
  Tg fetuses (%): 33.3%
  Tg/Malformations (%): 100.0%
  nTg fetuses (%): 66.7%
36p Tg mice; 100 mg/kg
  Details of Malformation: 100 mg/kg: umbilical hernia (1)
36p Tg mice; 100 mg/kg, single dam
  Malformations/Tg (%): 100.0%
  Malformations/nTg (%): 0.0%
  Resorptions (%): 93.3% and 85.7%
  Tg/Malformations (%): 100.0%
36p Tg mice; 200 mg/kg i.p. day 9 of gestation, laparotomy day 19, single dam
  Implants Total: 8 and 16
36p Tg mice; 200 mg/kg, Total of 2 dams
  Implants Total: 24
  Implants/dam: 12.0
  Live fetuses/dam: 3.0
  Malformations total (%): 16.7%
  Malformations/Tg (%): 33.3%
  Malformations/nTg (%): 0.0%
  Resorptions (%): 70.8%
  Tg fetuses (%): 50.0%
  Tg/Malformations (%): 100.0%
  nTg fetuses (%): 50.0%
36p Tg mice; 200 mg/kg
  Details of Malformation: 200 mg/kg: umbilical hernia (1)
36p Tg mice; 200 mg/kg, single dam
  Malformations total (%): 16.7%
  Malformations/Tg (%): 33.3%
  Malformations/nTg (%): 0.0%
  Resorptions (%): 100.0% and 56.3%
  Tg fetuses (%): 50.0%
  Tg/Malformations (%): 100.0%
  nTg fetuses (%): 50.0%
rat
  malformation of the fetus: did not develop any malformation

## CC(=O)Oc1ccccc1C(=O)O [acetylsalicylic acid]
Rats and Rhesus monkeys
  teratogenicity in rats as compared with Rhesus monkeys: teratogenicity was observed at a lower dose
rabbit
  effect on teratogenicity of thalidomide: suppresses the teratogenicity of thalidomide

## NC(=O)NO [hydroxylurea]
Rats and Rhesus monkeys
  teratogenicity in rats as compared with Rhesus monkeys: teratogenicity was observed at a lower dose

## CN(Cc1cnc2nc(N)nc(N)c2n1)c1ccc(C(=O)N[C@@H](CCC(=O)O)C(=O)O)cc1 [methotrexate]
Rats and Rhesus monkeys
  teratogenicity in rats as compared with Rhesus monkeys: teratogenicity was observed at a lower dose
Rats and Rhesus monkeys; teratogenic sensitivity, rats versus monkeys
  sensitivity of rats higher than that of monkeys: 20 times

## CC1=C(/C=C/C(C)=C/C=C/C(C)=C/C(=O)O)C(C)(C)CCC1 [retinoic acid]
Rats and Rhesus monkeys
  teratogenicity in rats as compared with Rhesus monkeys: teratogenicity was observed at a lower dose

## CC[C@]1(O)C[C@H]2CN(CCc3c([nH]c4ccccc34)[C@@](C(=O)OC)(c3cc4c(cc3OC)N(C=O)[C@H]3[C@@](O)(C(=O)OC)[C@H](OC(C)=O)[C@]5(CC)C=CCN6CC[C@]43[C@@H]65)C2)C1 [vincristine]
Rats and Rhesus monkeys
  teratogenicity in rats as compared with Rhesus monkeys: teratogenicity was observed at a lower dose

## Aflatoxin B1
Salmonella TA100
  metabolic activation in mutagenicity test: efficiently activated
